Common to all, as to format: functional
In experiment [1] the test system is Staphylococcus aureus. Description: Antibacterial activity against Staphylococcus aureus UC9218 in presence of 10% human serum.
Experiment [2] has as its system Staphylococcus aureus. Description: Antibacterial activity against Staphylococcus aureus UC9218.
Experiment [3] deals with Staphylococcus aureus. Put plainly: Antibacterial activity against Staphylococcus aureus RN4220 at 100 uM by transcription-translation assay.

The structures appear in SMILES notation. Values after ≈ are worked out from the molar mass of the structure shown. Where only a bound is given, the exact number is not on record here.

With `Cn1c(C(=O)n2[nH]c(=O)c3cc(C#N)ccc32)cc2cccc(S(=O)(=O)c3ccccc3)c21`, the results for the minimum inhibitory concentration (MIC) in the experiment on Staphylococcus aureus [1] and with Staphylococcus aureus [2] were 64 µg/mL and 4 µg/mL (≈ 8.76 µM), respectively.
Take `O=C(c1cccc(S(=O)(=O)N2CCc3cc(Cl)ccc32)c1)n1[nH]c(=O)c2cc(Cl)ccc21`: the minimal inhibitory concentration (MIC) in the experiment on Staphylococcus aureus [1] amounted to 128 µg/mL; against Staphylococcus aureus [2], 4 µg/mL (≈ 8.19 µM). In the experiment with Staphylococcus aureus [3], this compound showed an inhibition at 100 µM of 80%.
The like results for `CC(C)Sc1ccc(C(=O)n2[nH]c(=O)c3cc(Br)ccc32)cn1` were, in that order, above 128 µg/mL, above 128 µg/mL and 49%.
The like results for `O=C(c1cccc(S(=O)(=O)N2CCOCC2)c1)n1[nH]c(=O)c2cc(Cl)ccc21` were, in that order, above 128 µg/mL, above 128 µg/mL and 5%.
`O=C(c1cccc(S(=O)(=O)N2CCOCC2)c1)n1[nH]c(=O)c2cc(Br)ccc21`: the MIC in the experiment on Staphylococcus aureus [1] and against Staphylococcus aureus [2] was above 128 µg/mL in each case. For the same compound, the inhibition at 100 µM in the experiment with Staphylococcus aureus [3] turned out to be 3%.
`N#Cc1ccc2c(c1)c(=O)[nH]n2C(=O)c1cc2cccc(S(=O)(=O)c3ccccc3)c2[nH]1`: the results for the minimum inhibitory concentration (MIC) in the experiment with Staphylococcus aureus [1] and against Staphylococcus aureus [2] were above 128 µg/mL and 16 µg/mL (≈ 36.2 µM), respectively.
For `N#Cc1ccc2c(c1)c(=O)[nH]n2C(=O)c1cncc(SCc2ccccc2)n1`, the minimum inhibitory concentration (MIC) in the experiment on Staphylococcus aureus [1] and in the experiment on Staphylococcus aureus [2] was above 128 µg/mL in each case. Moreover, the inhibition at 100 µM in the experiment on Staphylococcus aureus [3] worked out at 7%.
With `O=C(c1cccc(S(=O)(=O)N2CCc3cc(Cl)ccc32)c1)n1[nH]c(=O)c2cc(OC(F)(F)F)ccc21`, the MIC in the experiment on Staphylococcus aureus [1] is above 128 µg/mL; against Staphylococcus aureus [2], 4 µg/mL (≈ 7.44 µM). In the experiment with Staphylococcus aureus [3], testing at 100 µM gave an inhibition of 78%.
The like results for `O=C(c1cccc(S(=O)(=O)N2CCc3cc(Cl)ccc32)c1)n1[nH]c(=O)c2ccc(Br)cc21` were, in that order, above 128 µg/mL, 8 µg/mL (≈ 15 µM) and 67%.
The like results for `Cc1ccc2c(c1)c(=O)[nH]n2C(=O)c1cccc(S(=O)(=O)N2CCc3cc(Cl)ccc32)c1` were, in that order, above 128 µg/mL, 16 µg/mL (≈ 34.2 µM) and 49%.
The like results for `O=C(c1ccc(S(=O)(=O)N2CCc3cc(Cl)ccc32)cc1)n1[nH]c(=O)c2cc(Cl)ccc21` were, in that order, above 128 µg/mL, 16 µg/mL (≈ 32.8 µM) and 61%.
Consider `O=C(c1cccc(S(=O)(=O)N2CCc3cc(Cl)ccc32)c1)n1[nH]c(=O)c2cc(C(F)(F)F)ccc21`, for which the MIC is above 128 µg/mL in the experiment on Staphylococcus aureus [1] and 8 µg/mL (≈ 15.3 µM) with Staphylococcus aureus [2]. This compound came in with an inhibition at 100 µM with Staphylococcus aureus [3] of 62%.
The like results for `O=C(c1cccc(S(=O)(=O)N2CCc3cc(Cl)ccc32)c1)n1[nH]c(=O)c2ccc(Cl)cc21` were, in that order, above 128 µg/mL, 8 µg/mL (≈ 16.4 µM) and 78%.
On to `O=C(c1cc2cccc(S(=O)(=O)c3ccccc3)c2[nH]1)n1[nH]c(=O)c2cc(Br)ccc21`, for which the MIC in the experiment with Staphylococcus aureus [1] is 128 µg/mL; with Staphylococcus aureus [2], 16 µg/mL (≈ 32.2 µM).
Turning to `N#Cc1ccc2c(c1)c(=O)[nH]n2C(=O)c1ccc(S(=O)(=O)N2CCc3cc(Cl)ccc32)cc1`, the MIC in the experiment on Staphylococcus aureus [1] is above 128 µg/mL; against Staphylococcus aureus [2], 64 µg/mL (≈ 134 µM). This compound had an inhibition at 100 µM in the experiment with Staphylococcus aureus [3] of 5%.
On to `N#Cc1ccc2c(c1)c(=O)[nH]n2C(=O)c1cc2ccccc2[nH]1`, for which the MIC is above 128 µg/mL in the experiment on Staphylococcus aureus [1] and 64 µg/mL (≈ 212 µM) in the experiment on Staphylococcus aureus [2]. This compound also had an inhibition at 100 µM in the experiment on Staphylococcus aureus [3] of 99%.
The like results for `Cn1c(C(=O)n2[nH]c(=O)c3cc(C#N)ccc32)cc2ccccc21` were, in that order, above 128 µg/mL, 64 µg/mL (≈ 202 µM) and 49%.
The like results for `O=C(c1cnc(SCc2ccccc2)cn1)n1[nH]c(=O)c2cc(Br)ccc21` were, in that order, above 128 µg/mL, above 128 µg/mL and 5%.
The like results for `O=C(c1cc(-c2ccccc2)on1)n1[nH]c(=O)c2cc(Br)ccc21` were, in that order, above 128 µg/mL, 16 µg/mL (≈ 41.6 µM) and 42%.
`O=C(c1cccc(S(=O)(=O)N2CCc3ccccc32)c1)n1[nH]c(=O)c2cc(Br)ccc21`: the minimum inhibitory concentration (MIC) was determined as 128 µg/mL with Staphylococcus aureus [1] and 8 µg/mL (≈ 16.1 µM) in the experiment with Staphylococcus aureus [2]. This compound showed an inhibition at 100 µM in the experiment with Staphylococcus aureus [3] of 52%.
The like results for `O=C(c1ccc(S(=O)(=O)N2CCc3cc(Cl)ccc32)cc1)n1[nH]c(=O)c2cc(Br)ccc21` were, in that order, above 128 µg/mL, 8 µg/mL (≈ 15 µM) and 56%.
As to `CN(c1ccc(Cl)cc1)S(=O)(=O)c1cccc(C(=O)n2[nH]c(=O)c3cc(Br)ccc32)c1`, the minimal inhibitory concentration (MIC) in the experiment on Staphylococcus aureus [1] and against Staphylococcus aureus [2] was above 128 µg/mL throughout. The compound further came in with an inhibition at 100 µM in the experiment with Staphylococcus aureus [3] of 55%.
Turning to `N#Cc1ccc2c(c1)c(=O)[nH]n2C(=O)c1cccc(S(=O)(=O)N2CCOCC2)c1`, the MIC was found to be 64 µg/mL with Staphylococcus aureus [1] and 64 µg/mL (≈ 155 µM) against Staphylococcus aureus [2]. In the experiment with Staphylococcus aureus [3], the inhibition at 100 µM was 10%.
For `N#Cc1ccc2c(c1)c(=O)[nH]n2C(=O)c1cnc(SCc2ccccc2)cn1`, the minimal inhibitory concentration (MIC) in the experiment with Staphylococcus aureus [1] and against Staphylococcus aureus [2] was above 128 µg/mL in each case. For the same compound, 100 µM produced 22% inhibition in the experiment with Staphylococcus aureus [3].
Take `O=C(c1cccc(S(=O)(=O)N2CCc3cc(Cl)ccc32)c1)n1[nH]c(=O)c2cc(Br)ccc21`: the MIC in the experiment with Staphylococcus aureus [1] turned out to be 128 µg/mL; in the experiment on Staphylococcus aureus [2], 4 µg/mL (≈ 7.51 µM). Besides, in the experiment with Staphylococcus aureus [3], 100 µM produced 20% inhibition.
The like results for `O=C(c1cncc(SCc2ccccc2)n1)n1[nH]c(=O)c2cc(Br)ccc21` were, in that order, above 128 µg/mL, 32 µg/mL (≈ 72.5 µM) and 28%.
Consider `Cn1c(C(=O)n2[nH]c(=O)c3cc(Br)ccc32)cc2cccc(S(=O)(=O)c3ccccc3)c21`, for which the minimal inhibitory concentration (MIC) with Staphylococcus aureus [1] was 128 µg/mL; with Staphylococcus aureus [2], 2 µg/mL (≈ 3.92 µM).
With `CN(c1ccc(Cl)cc1)S(=O)(=O)c1cc(Br)cc(C(=O)n2[nH]c(=O)c3cc(Br)ccc32)c1`, the MIC in the experiment on Staphylococcus aureus [1] and against Staphylococcus aureus [2] was above 128 µg/mL in each case. Moreover, 100 µM produced 29% inhibition in the experiment on Staphylococcus aureus [3].
For the compound `O=C(c1ccc(S(=O)(=O)N2CCc3cc(Cl)ccc32)cc1)n1[nH]c(=O)c2ccc(Cl)cc21`, the values for the MIC in the experiment with Staphylococcus aureus [1] and with Staphylococcus aureus [2] were above 128 µg/mL and 8 µg/mL (≈ 16.4 µM), respectively. Further, the inhibition at 100 µM with Staphylococcus aureus [3] came out at 86%.
Turning to `N#Cc1ccc2c(c1)c(=O)[nH]n2C(=O)c1cccc(S(=O)(=O)N2CCc3ccccc32)c1`, the figures for the MIC in the experiment on Staphylococcus aureus [1] and against Staphylococcus aureus [2] were 8 µg/mL and 0.5 µg/mL (≈ 1.12 µM), respectively. Besides, in the experiment on Staphylococcus aureus [3], at 100 µM the inhibition was 13%.

For the origin of these results see ChEMBL document CHEMBL1152154, “Bacterial translation inhibitors, 1-acylindazol-3-ols as anthranilic acid mimics” (2008).
